Read-outs that look alike come from different tables or passages of the source.
Experiments:
M. tuberculosis [1] = conditions: tlyA mutants 315-A, C-202 and C-211; cited from earlier work
M. tuberculosis [2] = format: cell-based, Mycobacterium tuberculosis
[3] = system: M. tuberculosis rrl mutant C-401; format: cell-based, Mycobacterium tuberculosis

| Compound | susceptibility (M. tuberculosis [1]) | susceptibility (M. tuberculosis [2]) | effect on growth rate [3] |
| --- | --- | --- | --- |
| NCC[C@H](O)C(=O)N[C@@H]1C[C@H](N)[C@@H](O[C@H]2O[C@H](CN)[C@@H](O)[C@H](O)[C@H]2O)[C@H](O)[C@H]1O[C@H]1O[C@H](CO)[C@@H](O)[C@H](N)[C@H]1O [amikacin] | susceptible | susceptible | – |
| capreomycin | – | – | do not noticeably slow the growth rate |
